{"source": "patent US10865388B2", "about": "“Method for identifying anti-cancer agents using an in vitro cell culture system that maintains cancer cell stemness” (National Taiwan University, priority 2014, dated 2020)", "format_in_all_cases": "cell-based, human", "key": {"CLS1/CAF": {"test_system": "CLS1/CAF", "assay": "Drug resistance assay (MTT), CLS1/CAF", "conditions": "48 h drug treatment, CLS1 co-cultured with CAFs", "experimental": "(§1) An MTT [3-(4,5-dimethylthiazolyl-2)-2,5-diphenyltetrazolium bromide] (Sigma) assay was performed to determine cell proliferation. Briefly, CLS1/CAF and CLS1 cells were added to 96-well plates at a density of 5×10^3 cells/well. After incubating for 24 h, the cells were serum-starved overnight. The cells were then treated with different concentrations (0-50 μM) of the drugs docetaxel, cisplatin, etoposide and vinorelbine for 48 h. After 48 h, the culture medium containing 0.5 mg/ml MTT was added to each well. After 1.5 h of incubation, the medium was removed, and DMSO was added to the plates. The color intensity of the solubilized formazan was measured at 570 nm in an ELISA plate reader (Vector3; Perkin-Elmer, USA)."}, "CLS1": {"test_system": "CLS1", "assay": "Drug resistance assay (MTT), CLS1", "conditions": "48 h drug treatment, CLS1 after CAF removal", "experimental": "as §1"}, "[1]": {"test_system": "lung cancer cells co-cultured with CAFs", "assay": "Image-based high-content analysis of Nanog-positive cells per colony", "experimental": "Lung CSCs or cancer cells (200 cells/well) were added to 96-well plates pre-seeded with CAFs (2000 cells/well) and were allowed to attach to the plates overnight. After different treatments, cells were processed following the immunofluorescence protocol with the Nanog (ReproCELL) (1:300) primary antibody (as the cancer stem-cell marker) and the mouse anti-human CD90 FITC-conjugated (5E10, BD Pharmingen) antibody (as the CAF marker) overnight at 4° C. Next, the primary antibodies were incubated with the TRITC-conjugated secondary antibody [goat anti-rabbit IgG (H+L) Conjugate, Invitrogen] for 2 h at room temperature. The nuclei were counterstained with the Hoechst 33342 dye (Invitrogen). To determine the background fluorescence level of the secondary antibody, each plate included control wells containing only the secondary antibody (stained with the Hoechst 33342 dye). Images of the stained cells were acquired using the automated fluorescence microscopy platform.\nImage acquisition and analysis were performed as follows. Stained cells were imaged using the high-content analysis platform with a 4× objective. […] The images were analyzed using the MetaXpress® software (Molecular Devices). […] Finally, the TRITC-stained cell count and the total cell count were determined. The stemness of each colony was calculated as the ratio of Nanog-positive (TRITC-stained) cells to total cells. […]"}, "Nanog": {"test_system": "Nanog", "assay": "RT Q-PCR analysis of the stem cell marker Nanog", "conditions": "for Nanog expression in CLS1 cells treated with cytokine: IGF-II 10 ng/ml, HGF 10 ng/ml, sCD14 500 ng/ml (FIG. 4f)", "experimental": "The expression level of stemness-related genes and validation of the Affymetrix microarray data for CAF, CLS1/CAF and CLS1 were performed through RT Q-PCR using an ABI Prism 7900 Sequencer (Applied Biosystems).\nTATA-box binding protein (TBP) and β-actin were used as internal controls. The expression levels were normalized to TBP and defined as −ΔCT=−[CTtarget−CTTBP]. The relative expression ratio was calculated as the fold change relative to the control (2^−ΔΔCT). The experiments were performed in triplicate."}, "[2]": {"test_system": "IGF1R-p/IGF1R, AKT-p/AKT and Nanog", "assay": "Western blot analysis of IGF1R, AKT and Nanog", "conditions": "CLS1, CL141 and CL152; IGF-II 10 or 100 ng/ml, time-dependent (FIG. 5c)", "experimental": "The detailed procedures were performed as described in Zoller, Nat Rev Cancer 11:254-267 (2011). The primary antibodies for p-IGF1R (Y1316, 6113S; 1:1000), p-AKT (D9E; 1:1000), AKT (927L; 1:1000) and Nanog (D73G4; 1:1000) were purchased from Cell Signaling Technology, Inc., and the primary antibody for IGF1R (C-20; 1:1000) was purchased from Santa Cruz. Monoclonal mouse anti-β-actin (Chemicon, Millipore; 1:5000) was used as a loading control. The membranes were then washed three times with TBST, followed by incubation with horseradish peroxidase (HRP)-conjugated secondary antibody (1:5,000) in TBST/2% skim milk. Bound antibody was detected using the Enhanced Chemiluminescence System (Santa Cruz, Calif.). Chemiluminescent signals were captured using the Fujifilm LAS 3000 system (Fujifilm, Tokyo, Japan). All experiments were performed at least three times in duplicate."}, "ALDH activity": {"test_system": "ALDH activity", "assay": "ALDEFLUOR assay (flow cytometry)", "conditions": "CLS1/CAFs, A549, H1975 and EKVX; IGF-II 100 ng/ml (FIG. 15)", "experimental": "ALDH activity of cells was measured using the ALDEFLUOR assay kit (StemCell Technologies) based on the manufacturer's protocol and a previous report. Ginestier, et al., 2007. After different treatments, the cells were suspended in the ALDEFLUOR assay buffer containing the ALDH substrate BODIPY-aminoacetaldehyde (BAAA, 1 mM per 1×10^6 cells, incubate 30 min at 37° C.). As a negative control, the cell sample was treated with diethylaminobenzaldehyde (DEAB), a specific ALDH inhibitor. Nonviable cells were identified by propidium iodide staining and analysis using the FACSAria instrument (Becton Dickinson)."}, "CLS1 cells": {"test_system": "CLS1 cells", "assay": "Ultra-low sphere-forming assay, CLS1", "conditions": "IGF-II 10 and 100 ng/ml, 21 days (FIG. 5b)", "experimental": "An ultra-low sphere-forming assay was performed as previously described (Dontu, et al., 2003) and modified as the following procedures. A single-cell suspension of lung CSCs in MCDB201 serum-free medium (Invitrogen) supplemented with 20 ng/ml EGF (Sigma) and 20 ng/ml bFGF (Invitrogen) was seeded in ultra-low adherent 24-well plates (Corning, Corning, N.Y., USA; 200 viable cells/well). The medium was supplemented with fresh growth factors twice weekly. After 3 weeks, the spheres were examined under the Axiovert 200 microscope."}}, "data": [{"compound": "N.N.[Cl][Pt][Cl]", "note": "[Cisplatin]", "values": [{"measurement": "IC50", "setting": "CLS1/CAF", "result": 310, "unit": "nM"}, {"measurement": "IC50", "setting": "CLS1", "result": 200, "unit": "nM"}]}, {"compound": "CC(=O)O[C@@]12CO[C@@H]1C[C@H](O)[C@@]1(C)C(=O)[C@H](O)C3=C(C)[C@@H](OC(=O)[C@H](O)[C@@H](NC(=O)OC(C)(C)C)c4ccccc4)C[C@@](O)([C@@H](OC(=O)c4ccccc4)[C@H]21)C3(C)C", "note": "[Docetaxel]", "values": [{"measurement": "IC50", "setting": "CLS1/CAF; Homo sapiens", "result": 54.8, "unit": "nM"}, {"measurement": "IC50", "setting": "CLS1; Homo sapiens", "result": 4.2, "unit": "nM"}]}, {"compound": "COc1cc([C@@H]2c3cc4c(cc3[C@@H](O[C@@H]3O[C@@H]5CO[C@@H](C)O[C@H]5[C@H](O)[C@H]3O)[C@H]3COC(=O)[C@H]23)OCO4)cc(OC)c1O", "note": "[Etoposide (VP-16), Etoposide]", "values": [{"measurement": "IC50", "setting": "CLS1/CAF; Homo sapiens", "result": 109000, "unit": "nM"}, {"measurement": "IC50", "setting": "CLS1; Homo sapiens", "result": 1060, "unit": "nM"}]}, {"compound": "COc1cc([C@@H]2c3cc4c(cc3[C@H](O)[C@H]3COC(=O)[C@@H]23)OCO4)cc(OC)c1OC", "note": "[PPP, picropodophyllin]", "values": [{"measurement": "Nanog-positive cells in each colony", "setting": "[1]; A549, EKVX, CLS1, CL141 and CL152 co-cultured with CAFs, antibody 1 μg/ml, inhibitors 1 μM/ml (FIG. 6a)", "result": "significantly inhibited"}]}, {"compound": "CCC1=C[C@@H]2CN(C1)Cc1c([nH]c3ccccc13)[C@@](C(=O)OC)(c1cc3c(cc1OC)N(C)[C@H]1[C@@](O)(C(=O)OC)[C@H](OC(C)=O)[C@]4(CC)C=CCN5CC[C@]31[C@@H]54)C2", "note": "[Vinorelbine ditartrate]", "values": [{"measurement": "IC50", "setting": "CLS1/CAF; Homo sapiens", "result": 775, "unit": "nM"}, {"measurement": "IC50", "setting": "CLS1; Homo sapiens", "result": 28.5, "unit": "nM"}]}, {"compound": "HGF: hepatocyte growth factor, cytokine added to CLS1 cells", "values": [{"measurement": "Nanog expression in CLS1 cells treated with cytokine", "setting": "Nanog", "result": "induced"}]}, {"compound": "IGF-II: growth factor secreted by CAFs, added as cytokine to cancer cells", "values": [{"measurement": "IGF1R and Akt phosphorylation and downstream Nanog expression", "setting": "[2]", "result": "induced"}, {"measurement": "ALDEFLUOR-positive ratio", "setting": "ALDH activity", "result": "increased"}, {"measurement": "Nanog expression", "setting": "Nanog; CLS1, A549, H1975 and H460 treated with IGF-II 100 ng/ml (FIG. 5a)", "result": "increased"}, {"measurement": "Nanog expression in CLS1 cells treated with cytokine", "setting": "Nanog", "result": "induced"}, {"measurement": "sphere numbers and size", "setting": "CLS1 cells", "result": "enlarged"}, {"measurement": "number of Nanog-positive cells per colony", "setting": "[1]; IGF-II 10 and 100 ng/ml, CLS1 cells (FIG. 14b)", "result": "facilitated"}]}]}
